Consider three compounds from US20090099216A1, “NOVEL ADENINE COMPOUND” (priority 2005, published 2009).

pEC50: −log10 of the molar value.

The target in this assay is T1, Human TLR7 (Homo sapiens, UniProt Q9NYK1).
T1 construct: expressed in transfected cells; host or cells: HEK293 (hTLR7/seap-293), stably carrying the TLR7 plasmid and the NF-kB-SEAP reporter plasmid
T1 sequence (Q9NYK1 27-1049): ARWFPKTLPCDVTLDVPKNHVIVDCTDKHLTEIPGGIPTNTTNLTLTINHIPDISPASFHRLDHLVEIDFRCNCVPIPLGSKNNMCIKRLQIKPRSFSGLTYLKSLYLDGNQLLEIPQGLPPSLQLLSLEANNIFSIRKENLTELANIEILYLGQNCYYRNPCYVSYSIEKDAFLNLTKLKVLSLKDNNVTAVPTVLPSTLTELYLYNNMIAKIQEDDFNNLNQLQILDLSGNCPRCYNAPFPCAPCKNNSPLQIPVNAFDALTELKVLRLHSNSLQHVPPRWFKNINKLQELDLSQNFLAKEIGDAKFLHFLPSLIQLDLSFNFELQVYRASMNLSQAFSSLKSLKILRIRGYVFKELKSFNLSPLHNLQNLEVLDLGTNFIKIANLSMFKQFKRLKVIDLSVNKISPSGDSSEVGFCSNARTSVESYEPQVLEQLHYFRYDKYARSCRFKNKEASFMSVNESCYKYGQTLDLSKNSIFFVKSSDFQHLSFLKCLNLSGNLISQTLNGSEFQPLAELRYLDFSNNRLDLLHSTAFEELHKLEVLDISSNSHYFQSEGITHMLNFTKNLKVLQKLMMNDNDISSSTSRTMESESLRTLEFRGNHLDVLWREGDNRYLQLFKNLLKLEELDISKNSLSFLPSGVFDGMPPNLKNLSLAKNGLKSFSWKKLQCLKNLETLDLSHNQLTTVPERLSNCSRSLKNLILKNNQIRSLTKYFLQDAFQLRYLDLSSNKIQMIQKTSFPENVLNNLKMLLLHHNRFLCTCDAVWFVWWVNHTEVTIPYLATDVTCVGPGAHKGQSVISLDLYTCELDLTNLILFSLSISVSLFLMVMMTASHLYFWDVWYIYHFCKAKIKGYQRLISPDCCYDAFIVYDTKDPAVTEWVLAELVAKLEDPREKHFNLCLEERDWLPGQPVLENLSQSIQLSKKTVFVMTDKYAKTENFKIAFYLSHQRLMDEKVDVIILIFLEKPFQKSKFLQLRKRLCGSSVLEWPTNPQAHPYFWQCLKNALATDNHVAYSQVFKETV
The assay can be described thus: Human TLR7 reporter assay (NF-kB-SEAP) in HEK293 cells. The format is cell-based. The following applies: hTLR7/seap-293 HEK293 cells, 20 hours incubation, absorbance 405 nm, read-out: human TLR7 binding activity (EC50). As for the experimental part: Human TLR7 Reporter Assay
Human TLR7 or rat TLR7 plasmid and reporter plasmid (NF-kB-SEAP) stably-induced HEK293 cells were suspended in DMEM media (10% FBS, 1% NEAA, 10 ug/mL blastocidin S HCl, 100 ug/mL Zeocin), and the suspension was seeded in 90 μl/well on 96 well plate (hTLR^7/seap-293: 20000 cells/well, rTLR7/seap-293: 25000 cells/well).
To the cells seeded on 96 well plate was added in 10 μl/well a test compound wherein DMSO stock solution (2 μl) was hundredfold diluted with medium (200 μl) (final concentration; 1 nM-10 μM, common ratio 3). The mixture was stirred tapping in the side of the plate, and then incubated for 20 hours in CO2 incubator. To the cells stimulated by a test compound was added a substrate for reporter assay (substrate for SEAP, pNPP) by 50 μl/well. 10 minutes after the addition of substrate, a quenching solution (4N NaOH) was added by 50 μl/well, and the enzymatic reaction was quenched. Top seal A was attached on the plate, and absorbance was measured by microplate reader (405 nm).
(In a reporter assay the amount or activity of a reporter protein is the signal.)

As a reminder, the pEC50 is the negative decadic logarithm of the EC50, by convention in mol/L. Turning to `CCCCOc1nc(N)c2[nH]c(=O)n(CCN[C@@H](CCCCN)C(=O)OC)c2n1` [Example 7, Methyl N^2-[2-(6-amino-2-butoxy-8-oxo-7,8-dihydro-9H-purin-9-yl)ethyl]-L-lysinate], the negative logarithm of the EC50 (pEC50) is 5.77.

In the case of `CCCCOc1nc(N)c2[nH]c(=O)n(CCNCC(=O)OC)c2n1` [Example 1, Methyl N-[2-(6-amino-2-butoxy-7,8-dihydro-8-oxo-9H-purin-9-yl)-ethyl]glycinate], the negative logarithm of the EC50 (pEC50) was 6.54.

With `CCCCOc1nc(N)c2[nH]c(=O)n(CCN[C@@H](CC(=O)OC)C(=O)OC)c2n1` [Example 6, Dimethyl N-[2-(6-amino-2-butoxy-8-oxo-7,8-dihydro-9H-purin-9-yl)ethyl]-L-aspartate], the pEC50 is 6.06.
